One may read the IC50 as the midpoint of a concentration-inhibition curve. Usually solubility stands for the dissolved amount per volume that the medium holds. A word on the efflux ratio: it is the permeability from basolateral to apical divided by that in the opposite direction, in the common usage. The Papp is the rate of passage across a membrane or cell layer, normalised by area and donor concentration. As usually defined, the clearance is the rate of elimination divided by the concentration. A higher clearance goes with a high capacity for elimination. For orientation: half-life means how long it takes for the measured level to halve. Read a low half-life as rapid decline. Usually bioavailability stands for dose-corrected exposure relative to a reference, in per cent.

Values after ≈ are worked out from the molar mass of the structure shown.

This is an account of results in ChEMBL document CHEMBL4665725, “Identification of potent inhibitors of the sortilin-progranulin interaction” (Bioorg Med Chem Lett, 2020).

Data set [1] has as its target T1, Sortilin/Progranulin (Homo sapiens, UniProt P28799+Q99523).
T1 sequence (Q99523 whole entry): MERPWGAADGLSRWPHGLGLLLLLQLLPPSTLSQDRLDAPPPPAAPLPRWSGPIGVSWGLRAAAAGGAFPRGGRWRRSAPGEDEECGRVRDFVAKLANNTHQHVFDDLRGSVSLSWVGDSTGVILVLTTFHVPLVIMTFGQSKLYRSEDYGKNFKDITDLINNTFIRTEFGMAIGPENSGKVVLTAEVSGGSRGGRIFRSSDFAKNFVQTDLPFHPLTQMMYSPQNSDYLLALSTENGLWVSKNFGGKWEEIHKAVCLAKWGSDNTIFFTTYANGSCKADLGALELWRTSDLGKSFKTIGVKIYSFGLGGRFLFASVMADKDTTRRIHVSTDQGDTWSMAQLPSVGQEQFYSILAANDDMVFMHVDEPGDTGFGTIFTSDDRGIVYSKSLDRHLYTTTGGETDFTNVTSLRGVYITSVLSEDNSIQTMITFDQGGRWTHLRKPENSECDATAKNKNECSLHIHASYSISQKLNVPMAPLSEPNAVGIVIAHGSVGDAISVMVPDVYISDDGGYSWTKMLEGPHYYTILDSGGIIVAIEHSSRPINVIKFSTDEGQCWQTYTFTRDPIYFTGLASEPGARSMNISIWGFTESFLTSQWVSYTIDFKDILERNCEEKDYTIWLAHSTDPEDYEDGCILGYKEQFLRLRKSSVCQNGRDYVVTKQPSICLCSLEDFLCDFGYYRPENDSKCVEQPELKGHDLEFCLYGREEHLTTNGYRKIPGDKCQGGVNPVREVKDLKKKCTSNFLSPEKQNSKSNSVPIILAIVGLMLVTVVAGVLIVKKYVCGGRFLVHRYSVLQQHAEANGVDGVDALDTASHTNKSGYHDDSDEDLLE
T1 sequence (P28799 whole entry): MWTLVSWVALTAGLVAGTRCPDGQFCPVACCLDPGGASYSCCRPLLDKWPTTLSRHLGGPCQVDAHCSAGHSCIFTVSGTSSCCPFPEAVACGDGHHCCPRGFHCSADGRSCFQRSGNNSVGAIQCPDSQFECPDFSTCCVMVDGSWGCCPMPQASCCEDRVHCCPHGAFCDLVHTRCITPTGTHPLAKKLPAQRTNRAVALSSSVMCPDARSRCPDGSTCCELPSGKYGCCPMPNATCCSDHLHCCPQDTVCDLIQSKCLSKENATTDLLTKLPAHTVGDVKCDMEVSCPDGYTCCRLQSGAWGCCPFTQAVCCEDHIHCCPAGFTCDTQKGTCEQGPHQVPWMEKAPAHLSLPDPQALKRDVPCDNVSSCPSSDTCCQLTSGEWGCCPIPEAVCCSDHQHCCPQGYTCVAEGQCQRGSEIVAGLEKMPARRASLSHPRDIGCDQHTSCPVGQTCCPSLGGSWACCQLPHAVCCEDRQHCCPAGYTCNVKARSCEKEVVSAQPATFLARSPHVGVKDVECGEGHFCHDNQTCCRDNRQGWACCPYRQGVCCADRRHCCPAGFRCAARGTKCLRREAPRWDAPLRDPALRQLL
Nature of the data set: Inhibition of SORT1 (unknown origin)-GRN (unknown origin) protein-protein interaction by HTRF assay. For orientation: Time-resolved FRET reads energy transfer from a long-lived donor to a nearby acceptor.

Data set [2] in a line: Protein binding in rat plasma. It counts as ADME, cell-free. The settings on record: read-out: PPB (converted).
Data set [3] can be described thus: Solubility of the compound at pH 2. It counts as physicochemical. As to conditions: buffer.
Data set [4] is described as follows: Solubility of the compound at pH 7. It counts as physicochemical. The settings on record: buffer.
Data set [5] deals with P-gp. Description: Substrate activity at rat P-gp assessed as efflux ratio. As to conditions: not told. Format: ADME.
Data set [6] concerns P-gp. Nature of the data set: Substrate activity at human P-gp in MDR1 cells assessed as efflux ratio. It counts as ADME, cell-based.
The nature of data set [7]: Apparent permeability of the compound. It counts as ADME. The settings on record: not told.
Data set [8] is described as follows: Clearance in rat. It counts as ADME. As to conditions: in vivo.
Data set [9] is described as follows: Unbound clearance in rat. The settings on record: in vivo. Format: ADME.
Data set [10] is described as follows: Half life in rat. The settings on record: in vivo. It counts as ADME.
Data set [11] has as its target T1, Sortilin/Progranulin. Description: Inhibition of SORT1 (unknown origin)-GRN (unknown origin) protein-protein interaction assessed as increase in progranulin level by cell-based ELISA.
Data set [12] can be described thus: Oral bioavailability in rat. It counts as ADME, organism-based. The settings on record: in vivo.

With `CC(C)C[C@H](NC(=O)C1CN(Cc2cc(Cl)cc(Cl)c2)CCO1)C(=O)O` (stereo not given in full), the concentration for half-maximal inhibition (IC50) against Sortilin/Progranulin [1] amounted to 14.4 µM. In turn, `CC(C)c1cc(C(=O)O)n(CCc2ccccc2)n1` yielded an IC50 against Sortilin/Progranulin [1] of more than 67 µM. Still for that read-out and setting: the value for `O=C(N[C@@H](CC1CC1)C(=O)O)c1cc(Cl)cc(Cl)c1` was 10.7 µM. As for `CC(C)C[C@H](NC(=O)c1cc(Cl)cc(Cl)c1)C(=O)O`, at Sortilin/Progranulin [1], the 50% inhibitory concentration (IC50) stood at 2.7 µM. Same read-out and setting: with `CC(C)C[C@H](NC(=O)c1cnc2ccccc2n1)C(=O)O` the figure was 6.3 µM; with `CC(OC(C)(C)C)[C@H](NC(=O)c1cc(Cl)cc(Cl)c1)C(=O)O` (stereo not given in full), more than 67 µM. As to `CC(C)(C)c1cc(C(=O)O)n(Cc2nnc(-c3ccccc3)o2)n1`, the concentration for half-maximal inhibition (IC50) against Sortilin/Progranulin [1] came out at 0.49 µM.

In turn, `CC(C)C[C@H](NC(=O)c1cnn(C)c1)C(=O)O` showed a half-inhibitory concentration (IC50) on Sortilin/Progranulin [1] of 5.3 µM. The same measure, in the same setting: with `CC(C)(C)CCc1cc(C(=O)O)n(Cc2ccccc2)n1` the figure was more than 67 µM.

Regarding `CC(C)(C)CC[C@H](NC(=O)c1cc(Cl)c[nH]1)C(=O)O`, the IC50 is 0.09 µM against Sortilin/Progranulin [1] and 0.29 µM at Sortilin/Progranulin [11]. In [2], the fraction unbound was 0.0216. In addition, the solubility was 123 µM (≈ 35.3 µg/mL) in data set [3] and 135 µM (≈ 38.7 µg/mL) in data set [4]. Besides, the values for the efflux ratio in the data set with P-gp [5] and in the data set on P-gp [6] were 1.3 and 2, respectively. Besides, the Papp in data set [7] came out at 4.8 ×10⁻⁶ cm/s. Besides, the clearance in [8] was 2.8 mL/min/kg. The compound also registered a CL free in data set [9] of 134 mL/min/kg. In data set [10], this compound had a half-life of 1.5 h. On Sortilin/Progranulin [1], `CC(C)C[C@H](NC(c1cc(Cl)cc(Cl)c1)C(F)(F)F)C(=O)O` (stereo not given in full) returned an IC50 of 10.8 µM.

At Sortilin/Progranulin [1], `CC(C)(C)c1cc(C(=O)O)n(CCc2ccccc2)n1` registered an IC50 of 5.3 µM. On Sortilin/Progranulin [1], `O=C(N[C@@H](CC12CC(C1)C2)C(=O)O)c1cc(Cl)cc(Cl)c1` came in with an IC50 of 18 µM. Still for that read-out and setting: with `O=C(N[C@@H](CC1CCCCC1)C(=O)O)c1cc(Cl)cc(Cl)c1` the figure was 2.3 µM.

Take `CC(C)(C)C[C@H](NC(=O)c1cc(Cl)cc(Cl)c1)C(=O)O`: 0.35 µM corresponded to half-maximal inhibition on Sortilin/Progranulin [1] (IC50). Same read-out and setting: with `CC(C)(C)c1cc(C(=O)O)n(Cc2ccc(-n3cccn3)nc2)n1` the figure was 3 µM; with `CC(C)(C)C[C@H](NC(=O)c1ccc(Oc2ccccc2)nc1)C(=O)O`, 0.065 µM; with `COc1cccc(C(=O)N[C@@H](CC(C)C)C(=O)O)c1`, 6.8 µM. With `CC(C)C[C@H](NC(=O)c1ccc(Cl)c(Cl)c1)C(=O)O`, the IC50 against Sortilin/Progranulin [1] was determined as 4.3 µM. `Cn1nc(C(C)(C)C)cc1C(=O)O`: the IC50 against Sortilin/Progranulin [1] is 8.3 µM. In turn, `CC(C)(C)c1cc(C(=O)O)n(Cc2cc(Cl)cc(Cl)c2)n1` had an IC50 against Sortilin/Progranulin [1] of 2.1 µM. `O=C(N[C@@H](Cc1ccccc1)C(=O)O)c1cc(Cl)cc(Cl)c1`: on Sortilin/Progranulin [1], the concentration for half-maximal inhibition (IC50) is more than 67 µM. Same read-out and setting: the value for `CC(C)(C)c1cc(C(=O)O)n(Cc2ccc(Oc3ccccc3)nc2)n1` was 2.1 µM. Still for that read-out and setting: the value for `C=C(C)C[C@H](NC(=O)c1cc(Cl)cc(Cl)c1)C(=O)O` was 17.1 µM. Still for that read-out and setting: the value for `CC(C)C[C@H](NC(=O)c1cccc(Cl)c1)C(=O)O` was 4.5 µM; that for `CC(C)C[C@H](NC(=O)C(C)(C)Cc1ccc(Cl)cc1)C(=O)O` was 6.8 µM; that for `CC(C)C[C@H](NC(=O)C1CCCC1)C(=O)O` was 25.3 µM.

`CC(C)(C)c1cc(C(=O)O)n(Cc2ccccc2)n1`: the IC50 at Sortilin/Progranulin [1] was determined as 2 µM.

At Sortilin/Progranulin [1], `CC(C)(C)OC[C@H](NC(=O)c1cc(Cl)cc(Cl)c1)C(=O)O` showed an IC50 of 1.5 µM. Consider `CC(C)(C)CC(NC(=O)c1cc(Cl)cc(Cl)c1)c1nn[nH]n1` (racemic), for which, at Sortilin/Progranulin [1], it took 6.9 µM to reach half-maximal inhibition (IC50). For `CC(C)(C)CC[C@H](NC(=O)c1cc(Cl)cc(Cl)c1)C(=O)O`, the results for the IC50 against Sortilin/Progranulin [1] and at Sortilin/Progranulin [11] were 0.17 µM and 0.65 µM, respectively. Moreover, the fraction unbound in data set [2] is 0.0028. Also, the results for the solubility in [3] and in data set [4] were 69 µM (≈ 22.9 µg/mL) and 134 µM (≈ 44.5 µg/mL), respectively. The efflux ratio in the data set with P-gp [5] came to 3.9; in the data set with P-gp [6], 1.8. The Papp in [7] was determined as 23 ×10⁻⁶ cm/s. The compound further came in with a clearance in [8] of 0.6 mL/min/kg. In addition, the CL free in data set [9] was found to be 215 mL/min/kg. In addition, in [10], the half-life is 5.9 h. In data set [12], the bioavailability was determined as 100%. Turning to `CC(C)(C)CC[C@H](NC(=O)c1ccc(Oc2ccccc2)nc1)C(=O)O`, the IC50 came out at 0.02 µM on Sortilin/Progranulin [1] and 0.12 µM at Sortilin/Progranulin [11]. Besides, the fraction unbound in data set [2] was 0.0077. The solubility in data set [3] turned out to be 126 µM (≈ 44.9 µg/mL); in [4], 147 µM (≈ 52.4 µg/mL). Also, the efflux ratio in the data set on P-gp [5] was 3.5; in the data set on P-gp [6], 2.2. Moreover, the Papp in data set [7] is 7 ×10⁻⁶ cm/s. Moreover, the clearance in data set [8] amounted to 3.35 mL/min/kg. Further, the CL free in data set [9] turned out to be 453 mL/min/kg. Further, the half-life in data set [10] is 1.6 h. On to `CC(C)(C)Cc1cc(C(=O)O)n(Cc2ccccc2)n1`, for which the concentration for half-maximal inhibition (IC50) on Sortilin/Progranulin [1] was 6.6 µM. In turn, `CC(C)(C)c1cc(C(=O)O)n(-c2ccccc2)n1` came in with an IC50 on Sortilin/Progranulin [1] of 7.8 µM.
